Values of other authors in patent publication US4960900A, “Oxyimino derivatives of thiazole, method of preparation and use in therapy” (priority 1987, dated 1990).
Entries after “also recorded” stand apart in the source; their conditions may differ.

Columns and labels:
[1] = prior art documents; cited from earlier work
[2] = prior art documents; cited from earlier work; remark: listed apart in the source

## Cc1ncsc1C(C)O (centres unmarked) [1-(4-methylthiazol-5-yl)ethanol]
[1]
  anticonvulsant properties (prior art): possesses anticonvulsant properties; also recorded: is an anticonvulsant
[2]
  antihypoxic properties (prior art): devoid of beneficial antihypoxic effects
